Where two headings read alike, the source gives them in different places.
Tests used:
[1] = biological target: T1, T. brucei neutral sphingomyelinase (TbnSMase) (Trypanosoma brucei, UniProt B9WNA2); format: biochemical
T1 sequence (B9WNA2 1-580): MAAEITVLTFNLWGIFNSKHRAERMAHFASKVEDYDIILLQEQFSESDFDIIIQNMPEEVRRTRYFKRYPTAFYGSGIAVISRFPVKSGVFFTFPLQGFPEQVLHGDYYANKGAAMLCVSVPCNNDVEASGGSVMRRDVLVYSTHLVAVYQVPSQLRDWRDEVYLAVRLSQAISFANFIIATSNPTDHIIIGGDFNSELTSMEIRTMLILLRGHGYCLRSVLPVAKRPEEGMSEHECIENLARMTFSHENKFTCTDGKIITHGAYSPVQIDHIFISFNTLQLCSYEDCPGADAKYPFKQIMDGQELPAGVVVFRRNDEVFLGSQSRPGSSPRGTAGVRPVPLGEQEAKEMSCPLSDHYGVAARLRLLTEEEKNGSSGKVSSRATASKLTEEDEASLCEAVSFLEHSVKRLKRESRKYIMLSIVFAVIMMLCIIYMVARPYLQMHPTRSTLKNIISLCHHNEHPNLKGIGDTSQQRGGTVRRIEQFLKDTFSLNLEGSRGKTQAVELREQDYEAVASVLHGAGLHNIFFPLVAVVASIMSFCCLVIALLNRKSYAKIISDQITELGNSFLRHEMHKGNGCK

[2] = biological target: T1, T. brucei neutral sphingomyelinase (TbnSMase); format: biochemical; remark: listed apart in the source

IC50 [1] [µM] | IC50 [2] [µM] | Compound
14.4 ± 2.3 | – | O=C(/C=C/c1ccc(/C=C/C(=O)Nc2ccc(C3=NCCN3)cc2)cc1)Nc1ccc(C2=NCCN2)cc1 [GW4869]
24.6 ± 4.6 | – | CCCC[C@@H](C)/C=C(C)/C=C(\C)C(=O)NC1=C[C@@](O)(/C=C/C=C/C=C/C(=O)NC2=C(O)CCC2=O)[C@@H]2O[C@@H]2C1=O [Manumycin A]
– | 21 ± 3.2 | CCCCCCCCCCCCCCCCCCOCC(COP(=O)([O-])OCC[N+](C)(C)C)OC (stereo not drawn) [edelfosine]
